Values after ≈ are worked out from the molar mass of the structure shown. Read-outs that look alike come from different tables or passages of the source. Where no end group is shown, it is not given here.
Legend:
E. coli (KCTC 1682) = type: cell-based, Escherichia coli
Procedure: To comprehensively evaluate the therapeutic potential of BP100 and the five selected analogs, we assessed their capacity to maintain antibacterial activity in the presence of physiological salts and serum (Table 4). Antibacterial assays were conducted in an environment supplemented with either […] fresh human serum or physiological salts. […] This enhanced stability in physiologically relevant conditions may have important implications for the potential therapeutic applications of these peptide analogs.
The minimal inhibitory concentrations (MICs) of the peptides against bacterial strains were determined using a modified broth-microdilution method in accordance with the National Committee for Clinical Laboratory Standards (NCCLS) guidelines. Overnight cultures were diluted in cation-adjusted Mueller–Hinton Broth (MHB) to achieve an inoculum density of 2 × 10^6 CFU/mL. A two-fold serial dilution of the peptide solution (100 μL) was introduced into microtiter plates, followed by the addition of 100 μL of bacterial suspension. The plates were then incubated at 37 °C for 24 h to determine the MICs. Wells containing only culture media served as negative controls, while those with added bacteria functioned as positive controls. The MIC, expressed in μM, was defined as the lowest peptide concentration that prevented visible bacterial growth. This protocol was also employed to determine MICs in the presence of physiological salts (150 mM of NaCl, 4.5 mM of KCl, 6 μM of NH4Cl, 1 mM of MgCl2, 2.5 mM of CaCl2, and 4 μM of FeCl3) and 20% human serum to assess the peptides’ efficacy under conditions more closely resembling physiological environments. All experiments were conducted in triplicate and repeated three times independently to ensure reproducibility and statistical significance of the results.

MDRPA (CCARM 2095) = type: cell-based, multidrug-resistant Pseudomonas aeruginosa; conditions: for MICA: MIC of peptide alone: checkerboard, 37 °C, 24 h; for FICI: fractional inhibitory concentration index: peptide with ciprofloxacin, [A]/MICA + [B]/MICB
Excerpt: Multidrug-resistant pathogens pose a significant challenge to both human and animal health. The steady decline in the discovery of new antibiotics has exacerbated the difficulty in developing effective therapies for infection control. Consequently, there is an urgent need for alternative strategies that can combat pathogens without inducing drug resistance. One such strategy involves the combination of different antimicrobial agents. The effects of antimicrobial peptides (AMPs) combined with conventional antibiotics often surpass those of individual drugs. […] The primary advantage of synergistic combinations lies in their ability to lower the concentration of each antimicrobial agent required for effective antibacterial activity. This approach offers several benefits, including reduced production costs, a decreased risk of adverse side effects, diminished toxicity to mammalian cells, and a lower likelihood of drug resistance development. In light of these potential advantages, we investigated the synergistic effects of BP100 and the five selected analogs in combination with ciprofloxacin against multidrug-resistant Pseudomonas aeruginosa (MDRPA) using a checkerboard synergy assay. Ciprofloxacin, an antibiotic belonging to the fluoroquinolone class, is commonly used to treat various bacterial infections, including urinary tract infections and pneumonia. It exerts a bactericidal effect by inhibiting bacterial DNA gyrase, thereby disrupting DNA replication and transcription […]. The fractional inhibitory concentration index (FICI) results for BP100 and its selected analogs, when paired with ciprofloxacin against MDRPA, are detailed in Table 5. […] Such combinations may offer a valuable approach to enhancing the efficacy of existing antibiotics and potentially mitigating the development of antimicrobial resistance.
The synergistic effects of peptide-antibiotic combinations against methicillin-resistant Staphylococcus aureus (MRSA; CCARM 3089) and multidrug-resistant Pseudomonas aeruginosa (MDRPA; CCARM 2095) were evaluated using the fractional inhibitory concentration index (FICI) method. Antibiotics and peptides were subjected to two-fold serial dilutions, mixed in equal ratios, and combined with a bacterial suspension adjusted to approximately 10^6 CFU/mL. The resulting mixtures were distributed into microplate wells and incubated at 37 °C with orbital shaking at 200 rpm for 24 h. Bacterial growth was monitored by measuring the optical density at 600 nm (OD600). The FICI was calculated using the broth microdilution checkerboard method, defined as the sum of the ratios of the minimum inhibitory concentrations (MICs) of each agent in combination to their individual MICs, according to the following equation: FICI = (MIC of antibiotic in combination/MIC of antibiotic alone) + (MIC of peptide in combination/MIC of peptide alone). The interpretation of FICI values was as follows: FICI ≤ 0.5 indicates synergy; 0.5 < FICI ≤ 1.0 indicates an additive effect; 1.0 < FICI ≤ 4.0 indicates indifference; and FICI > 4.0 indicates antagonism.

S. aureus (KCTC 1621) = type: cell-based, Staphylococcus aureus; conditions: 10% Human Serum

| Compound | MIC (E. coli (KCTC 1682); 4 μM of FeCl3) | MIC (E. coli (KCTC 1682); 6 μM of NH4Cl) | MIC (E. coli (KCTC 1682); 1 mM of MgCl2) | MIC (E. coli (KCTC 1682); 2.5 mM of CaCl2) | MIC (E. coli (KCTC 1682); 4.5 mM of KCl) | MIC (E. coli (KCTC 1682); 150 mM of NaCl) | MIC (E. coli (KCTC 1682); Control, absence of salts) | MICA: MIC of peptide alone (MDRPA (CCARM 2095)) | FICI: fractional inhibitory concentration index (MDRPA (CCARM 2095)) | MIC (S. aureus (KCTC 1621)) |
| --- | --- | --- | --- | --- | --- | --- | --- | --- | --- | --- |
| CC[C@H](C)[C@H](NC(=O)[C@H](CCCCN)NC(=O)[C@H](CCCCN)NC(=O)[C@H](Cc1ccccc1)NC(=O)[C@H](CC(C)C)NC(=O)[C@H](CCCCN)NC(=O)[C@@H](N)CCCCN)C(=O)N[C@@H](CC(C)C)C(=O)N[C@@H](CCCCN)C(=O)N[C@@H](Cc1ccc(O)cc1)C(=O)N[C@@H](CC(C)C)C(N)=O [BP100] | 16 µM (≈ 22.7 µg/mL) | 16 µM (≈ 22.7 µg/mL) | 16 µM (≈ 22.7 µg/mL) | 16 µM (≈ 22.7 µg/mL) | 16 µM (≈ 22.7 µg/mL) | 16 µM (≈ 22.7 µg/mL) | 4 µM | 32 µg/mL | 0.375 | 32 µM (≈ 45.5 µg/mL) |
| KKLFKKIWKWL-NH2 [BP11] | 4 µM | 4 µM | 8 µM | 16 µM | 8 µM | 16 µM | 8 µM | 8 µg/mL | 0.3125 | 8 µM |
| KKLWKKILKWL-NH2 [BP8] | 4 µM | 8 µM | 8 µM | 16 µM | 4 µM | 8 µM | 2 µM | 8 µg/mL | – | 4 µM |
| KKWFKKILKWL-NH2 [BP6] | 16 µM | 16 µM | 8 µM | 16 µM | 4 µM | 8 µM | 4 µM | 8 µg/mL | 0.375 | 4 µM |
| KKWFKKWLKWL-NH2 [BP13] | 8 µM | 8 µM | 8 µM | 16 µM | 8 µM | 16 µM | 8 µM | 8 µg/mL | 0.2656 | 8 µM |
| KKWWKKILKYL-NH2 [BP5] | 8 µM | 4 µM | 4 µM | 8 µM | 4 µM | 8 µM | 2 µM | 8 µg/mL | 0.3125 | 4 µM |

From article PMC11596392, “Enhanced Antibacterial, Anti-Inflammatory, and Antibiofilm Activities of Tryptophan-Substituted Peptides Derived from Cecropin A-Melittin Hybrid Peptide BP100” (Molecules, 2024)
